The text below walks through data of patent US8580814B2, “Methods of using (+)-1,4-dihydro-7-[(3S,4S)-3-methoxy-4-(methylamino)-1-pyrrolidinyl]-4- oxo-1-(2-thiazolyl)-1,8-naphthyridine-3-carboxylic acid for treatment of cancer” (priority 2006, dated 2013).

Each structure is given as a SMILES string. Converted amounts (≈) assume the structure as drawn. Marks after values point to notes of the source that are not given here.

The test system of one test is p73 null cells. The test can be described thus: SNS-595 sensitivity in p73 null vs p73 containing cells. It is filed as cell-based. Particulars: p73 null cells as compared to p73 containing cells.
Another test relates to HCT116 cells. In words: High content screening and microscopy, nuclear foci (gH2AX, pATM). The format is cell-based. The settings on record: HCT116 cells dosed for 6 hour. How it is done:
Cells were plated as sub-confluent populations and allowed to grow for 36 hours. Cells were then treated with the compound at the given concentration for the given time period. Cells were fixed using 4% formaldehyde and permeabilized with 0.1% triton. Cells were exposed to primary antibodies for 1 hour at 25° C. at a 1:100 dilution in 10% FBS/PBS (anti-pATM—Chemicon, anti-gH2AX-Cell Signaling Technology). Cells were exposed to secondary antibodies for 1 hour at 25° C. at a 1:100 dilution in 10% FBS/PBS. Hoechst staining was carried out in 10% FBS/PBS at 500 ng/ml concentrations. High content screening was carried out on a Cellomics Arrayscan instrument using the Spot Detector algorithm. […] Cells were then fixed and analyzed for protein phosphorylation state (gH2AX images obtained using a fluorescence microscope, pATM images obtained with the ArrayScan VTi).

Another test relates to HCT-116 cells. The test can be described thus: Repair of DNA damage (gH2AX foci) in the absence of ATM and ATR. It is filed as cell-based. Particulars: for 6 h with 2 mM caffeine, washout, 16 hours recovery. How it is done: Compound was then removed and cells were allowed to recover for 16 hours. Cells were analyzed for gH2AX foci before and after drug washout.
Test [1] has as its system CCRF-CEM (lymphoblastic leukemia). The test can be described thus: MTT cell viability assay, leukemia cells. It is filed as cell-based. The settings on record: Homo sapiens, MTT after 72 hours. How it is done: (§1) The following cell lines were used in this assay: HL-60 (promyelocytic leukemia); Jurkat (T cell leukemia); CCRF-CEM (lymphoblastic leukemia); CEM/C2 (camptothecan resistant derivative of CCRF-CEM). Cells were seeded in 96 wells plates at 3000 cells per well and incubated for 16 hours. […] Titrations were diluted 1:100 in media to achieve final compound concentrations. The 96 well plates were aspirated and compound dilutions in media were added ([…]). MTT analysis was carried out after 72 hours of incubation at 37° C. Briefly, […] of MTT solution was added to each well. Cells were incubated at 37° C. for 1-2 hours. […] Plates were read on a spectromax machine with an absorbance measurement at […]. IC50's were calculated (data provided in Table 13) using regression analysis within GraphPad Prism.

Test [2] has as its system CEM/C2 (camptothecan resistant derivative of CCRF-CEM). In words: MTT cell viability assay, leukemia cells. It is filed as cell-based. The settings on record: Homo sapiens; CEM/C2, MTT after 72 hours. The method, then:
as §1

Test [3] deals with HL-60 (promyelocytic leukemia). In words: MTT cell viability assay, leukemia cells. The settings on record: Homo sapiens; HL-60, MTT after 72 hours. The format is cell-based. How it is done:
as §1
Background: Formazan colour is commonly taken as a measure of viable cells.

For a further test, the system named is Jurkat (T cell leukemia). The test can be described thus: MTT cell viability assay, leukemia cells. The format is cell-based. The settings on record: Homo sapiens, MTT after 72 hours. How it is done:
as §1

Test [4] relates to CCRF-CEM acute lymphoblastic leukemia tumor. The test can be described thus: CCRF-CEM xenograft model. The format is in vivo, nude mice. The settings on record: q7d X3, IV, 25 mg/kg. The method, then:
CCRF-CEM acute lymphoblastic leukemia tumor lobes of 2-3 mm square were transplanted subcutaneously into nude mice. Tumors were allowed to grow to approximately 8-20 mm in diameter. […] Acceptable toxicity was defined as a mean group weight loss of 30% or less and not more than one toxic death among 6 treated animals. Anti-tumor activities of the drugs were assessed 20 or 21 days after the start of administration. Table 14 provides data for tumor inhibition (TI) and survival rate in the CCRF-CEM and LM3-Jck xenograft models.

Regarding `CN[C@H]1CN(c2ccc3c(=O)c(C(=O)O)cn(-c4nccs4)c3n2)C[C@@H]1OC` [SNS-595, (+)-1,4-dihydro-7-[(3S,4S)-3-methoxy-4-(methylamino)-1-pyrrolidinyl]-4-oxo-1-(2-thiazolyl)-1,8-naphthyridine-3-carboxylic acid], the “decrease in SNS-595 sensitivity” value with p73 null cells is on record as “more than 11 fold”. The “nuclear foci formation (gH2AX, pATM)” value in the test on HCT116 cells is listed as “leads to nuclear foci formation”. Also, the “repair of induced DNA damage (gH2AX foci) in the absence of ATM and ATR” value with HCT-116 cells is listed as “readily repaired”. Also, the IC50 (usually the midpoint of a concentration-inhibition curve) came out at 0.018 µg/mL (≈ 0.0448 µM) in test [1], 0.01 µg/mL (≈ 0.0249 µM) in test [2], 0.053 µg/mL (≈ 0.132 µM) in test [3] and 0.023 µg/mL (≈ 0.0573 µM) in the test on Jurkat (T cell leukemia). Further, the “IR (%) (tumor inhibition rate)” value in test [4] is listed as 98.1* %.
